Data: patent US5840303A, “Peptides for inducing cytotoxic T lymphocyte responses to hepatitis B virus” (The Scripps Research Foundation, priority 1995, dated 1998)
Residues, ends and D or L forms follow the SMILES beside them.

Assays:
[1] = system: HBV core specific CTL from PBMC of patients with acute hepatitis B; details: patient
[2] = system: autologous target cells pulsed with peptide HBc11-27; experiment: Immunodominance of the HBc11-27 CTL epitope in HLA-A2 positive subjects; format: cell-based, human; details: one of the four chronic patients
Description: To assess the immunodominance in the HLA-A2 haplotype of the CTL epitope(s) contained in peptide HBc11-27, eight additional subjects with self-limited acute hepatitis B infection, four patients with chronic active hepatitis B, and eight healthy subjects without evidence of previous exposure to HBV (all HLA-A2 positive) were repeatedly tested.
Patient to patient variations in the pattern of response to the peptide were observed during the course of the illness. The cytolytic activity was generally detectable during the icteric phase when transaminase values were high; in some patients the response was long-lasting, being still detectable when GPT levels had already become normal, and in other subjects the lytic activity became undetectable 2 or 3 weeks after the transaminase peak when GPT levels were still slightly altered.

Row | Compound | cytotoxic activity of unstimulated PBMC against autologous B-LCL fed with peptide [1] | cytotoxicity against the relevant peptide sequence [2]
1 | CC(C)C[C@H](NC(=O)[C@@H](NC(=O)[C@H](CO)NC(=O)[C@@H](N)CC(C)C)[C@@H](C)O)C(=O)N1CCC[C@H]1C(=O)N[C@@H](CCC(=O)O)C(=O)N[C@H](C(=O)N[C@H](C(=O)N[C@H](C(=O)N[C@H](C(=O)N[C@@H](CCCNC(=N)N)C(=O)N[C@@H](CCCNC(=N)N)C(=O)N[C@@H](CCCNC(=N)N)C(=O)NCC(=O)N[C@@H](CCCNC(=N)N)C(=O)N[C@@H](CO)C(=O)O)C(C)C)C(C)C)[C@@H](C)O)[C@@H](C)O [140-155] | No cytotoxic activity was observed | 
2 | CC(C)C[C@H](NC(=O)[C@H](CC(C)C)NC(=O)[C@H](CCC(=O)O)NC(=O)[C@@H](NC(=O)[C@@H](NC(=O)[C@H](C)N)[C@@H](C)O)C(C)C)C(=O)N[C@@H](CO)C(=O)N[C@@H](Cc1ccccc1)C(=O)N[C@@H](CC(C)C)C(=O)N1CCC[C@H]1C(=O)N[C@@H](CO)C(=O)N[C@@H](CC(=O)O)C(=O)N[C@@H](Cc1ccccc1)C(=O)N[C@@H](Cc1ccccc1)C(=O)N1CCC[C@H]1C(=O)N[C@@H](CO)C(=O)N[C@H](C(=O)O)C(C)C [HBc11-27] (H-ATVELLSFLPSDFFPSV-OH) |  | detectable, though very low levels of cytotoxicity
